“Also recorded” adds a separate entry of the source.
Legend:
human normal melanocytes = assay: melanin formation suppression test in human melanocytes (L-DOPA, absorbance 495 nm); assay type: cell-based; conditions: 5 days, relative value, without addition of sample = 100
Method: A melanin formation suppression test was performed using human melanocytes (manufactured by KURABO INDUSTRIES LTD.). That is, human normal melanocytes amplified in Medium 254 medium (human melanocyte medium added with HMGS, manufactured by KURABO INDUSTRIES LTD.) was added to a 96 well plate at 10^4 cells per well, and cultured in a carbon dioxide incubator adjusted to 5% (v/v) carbon dioxide gas at 37° C. for about 24 hr. Then, pure water or a sample (conagenin) dissolved in pure water was added thereto to a final concentration of 0.1 mM, 1.0 mM or 10 mM. As a positive control, kojic acid (manufactured by Sigma Ltd.) was added to the same concentration. The cells were cultured for 5 more days under the same conditions. To the recovered cells was added 50 μl of cell suspension (PBS buffer containing Triton X-100 at 0.1% (v/v)). After thorough suspending, the suspension was stood at 4° C. for 1 hr. Thereto was added 50 μl of 10 mM L-DOPA (manufactured by Nacalai Tesque), and the mixture was incubated at 37° C. for 1 hr. Thereafter, the absorbance at 495 nm was measured by a plate reader (multiscanplus MKII, manufactured by Japan Flow Laboratory), and the melanin formation amount was measured (shown in a relative value to the value without addition of sample as 100).

B16 melanoma cells = assay: melanin formation suppression test, visual whitening and cell mass volume; assay type: cell-based, mouse; set-up: key to level of whitening: whitening high→++; whitening moderate→+; somewhat whitened→+−; no whitening→−; conditions: 5 days; for level of whitening: visual evaluation; for change in cell mass volume: visual, cytotoxicity index
Method: A melanin formation suppression test was performed as follows using mouse melanoma cells. First, 2×10^4 B16 melanoma cells were plated in a 35 mm diameter dish containing Eagle's minimum nutrition medium (3 ml) supplemented with 10% (v/v) fetal bovine serum, and cultured in a carbon dioxide incubator adjusted to 5% (v/v) carbon dioxide gas at 37° C. for about 24 hr. Then, pure water or a sample dissolved in pure water was added thereto to a final concentration of 0.1 mM, 1.0 mM or 10 mM. As a positive control, kojic acid (manufactured by Sigma Ltd.) was added to the same concentration. The cells were cultured for 5 more days under the same conditions, treated with trypsin, and centrifuged to collect the cells in a 1.5 ml Eppendorf. The level of whitening of the cells was visually evaluated, and indicated: whitening high→++; whitening moderate→+; somewhat whitened→+−; no whitening→−. Simultaneously, changes in the cell mass volume was visually evaluated and used as a cytotoxicity index.

O=c1cc(CO)occ1O [kojic acid, reference compound]
melanin formation amount (human normal melanocytes; 100 μM): 105
melanin formation amount (human normal melanocytes; 1 mM): 88
level of whitening (B16 melanoma cells; 0.1 mM): +−
change in cell mass volume (B16 melanoma cells; 0.1 mM): none
level of whitening (B16 melanoma cells; 1 mM): +
change in cell mass volume (B16 melanoma cells; 1 mM): none
change in cell mass volume (B16 melanoma cells; 10 mM): cell death occurred; also recorded: yes (cell death)

From patent US20090253794A1, “Fibroblast Activator, Collagen Production Promoter, Collagen Contraction Promoter, Hyaluronic Acid Production Promoter, ATP Production Promoter, Melanin Formation Inhibitor, and Agent for External Application to the Skin” (priority 2005, published 2009)
